Assay results taken from patent US20230078764A1 (Yumanity Therapeutics, Inc., priority 2019, published 2023).
Read-outs that look alike come from different tables or passages of the source.

How the values were obtained:
[1] = molecular target: T1, human SCD5 (Homo sapiens, UniProt Q86SK9); experiment: Growth inhibition of yeast strain expressing human SCD5 as sole desaturase (OLE1 deleted), OD600 readout; assay type: cell-based
T1 construct: expressed in transfected cells; host or cells: yeast strain with OLE1 deleted, plasmid-borne human SCD5 (selected in SD-Ura)
T1 sequence (Q86SK9 1-330): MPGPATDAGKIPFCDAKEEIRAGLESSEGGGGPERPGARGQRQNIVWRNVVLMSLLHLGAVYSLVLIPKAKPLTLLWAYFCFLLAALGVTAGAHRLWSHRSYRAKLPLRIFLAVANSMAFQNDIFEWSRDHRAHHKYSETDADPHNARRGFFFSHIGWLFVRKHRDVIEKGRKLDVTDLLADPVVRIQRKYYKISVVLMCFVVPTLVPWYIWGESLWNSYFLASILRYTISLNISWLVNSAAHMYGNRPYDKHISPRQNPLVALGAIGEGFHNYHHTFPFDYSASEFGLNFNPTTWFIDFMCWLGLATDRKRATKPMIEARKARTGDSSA

[2] = molecular target: T2, human SCD1 (Homo sapiens, UniProt O00767); experiment: Growth inhibition of yeast strain expressing human SCD1 as sole desaturase (OLE1 deleted), OD600 readout; assay type: cell-based
T2 construct: expressed in transfected cells; host or cells: yeast strain with OLE1 deleted, plasmid-borne human SCD1 (selected in SD-Ura)
T2 sequence (O00767 1-359): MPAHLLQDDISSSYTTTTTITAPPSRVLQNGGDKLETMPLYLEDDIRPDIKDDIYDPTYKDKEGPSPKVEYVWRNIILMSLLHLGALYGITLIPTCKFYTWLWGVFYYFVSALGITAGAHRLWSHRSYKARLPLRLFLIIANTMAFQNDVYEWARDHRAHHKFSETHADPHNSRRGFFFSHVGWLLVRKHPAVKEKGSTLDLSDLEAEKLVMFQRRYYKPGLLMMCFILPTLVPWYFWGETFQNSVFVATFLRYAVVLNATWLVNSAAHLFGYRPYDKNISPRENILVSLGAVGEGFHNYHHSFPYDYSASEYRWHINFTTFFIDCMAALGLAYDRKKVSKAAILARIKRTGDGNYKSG

[3] = yeast strain expressing human SCD5 as sole desaturase, growth (OD600) after 40 h at 30° C., read-out: SCD5 IC50
[4] = yeast strain expressing human SCD1 as sole desaturase, growth (OD600) after 40 h at 30° C., read-out: SCD1 IC50

Compound | IC50 [1, 3] [nM] | IC50 [2, 4] [nM] | IC50 ([1]; SCD5 IC50) [nM] | IC50 ([2]; SCD1 IC50) [nM]
CN1N=C(C(=O)Nc2ncc(Cc3cccc(C(F)(F)F)c3)s2)CCC1=O [Compound 340] | 120 | 90 | – | –
Cn1nc(C(=O)Nc2ccc(COc3ccccc3)cn2)ccc1=O [Compound 584] | 1200 | > 45000 | – | –
Cn1cc(C(=O)Nc2ccc(Cc3cccc(F)c3)cn2)cc(F)c1=O [Compound 117, 5-fluoro-N-(5-(3-fluorobenzyl)pyridin-2-yl)-1-methyl-6-oxo-1,6-dihydropyridine-3-carboxamide] | 70 | 630 | – | –
Cn1nc(C(=O)Nc2ncc(Cc3cccc(F)c3)s2)ccc1=O [Compound 202, N-(5-(3-fluorobenzyl)thiazol-2-yl)-1-methyl-6-oxo-1,6-dihydropyridazine-3-carboxamide] | 20 | 20 | – | –
Cn1nc(C(=O)Nc2ccc(CNc3cccc(Cl)c3)cn2)ccc1=O [Compound 174, N-(5-((3-Chlorophenylamino)methyl)pyridin-2-yl)-1-methyl-6-oxo-1,6-dihydropyridazine-3-carboxamide] | 80 | 7560 | – | –
CN1N=C(C(=O)Nc2ccc(/C=C/c3cccc(Cl)c3)nn2)CCC1=O [Compound 288] | 2520 | > 45000 | – | –
CCn1ccc(C(=O)Nc2ccc(Cc3cccc(Cl)c3)cn2)n1 [Compound 100, N-(5-(3-chlorobenzyl)pyridin-2-yl)-1-ethyl-1H-pyrazole-3-carboxamide] | 20 | 1740 | – | –
O=C(Nc1ccc(Cc2cc(F)cc(Cl)c2)cn1)c1cnc(Cl)cn1 [Compound 659] | 55 | 350 | – | –
Cn1ccc(C(=O)Nc2ccc(Cc3cc(F)cc(C#N)c3)cn2)n1 [Compound 96, N-(5-(3-cyano-5-fluorobenzyl)pyridin-2-yl)-1-methyl-1H-pyrazole-3-carboxamide] | 130 | 1080 | – | –
CC(C)n1nc(C(=O)Nc2ccc(Cc3cccc(F)c3)cn2)ccc1=O [Compound 72, N-(5-(3-fluorobenzyl)pyridin-2-yl)-1-isopropyl-6-oxo-1,6-dihydropyridazine-3-carboxamide] | – | – | 390 | 4700
N#Cc1ccc(C(=O)Nc2ccc(Cc3cc(F)cc(F)c3)cn2)nc1 [Compound 493] | 43 | 32000 | – | –
CN1N=C(C(=O)Nc2ccc(Cc3cncc(F)c3)cn2)CCC1=O [Compound 442] | > 45000 | > 45000 | – | –
COC(=O)c1ccc(C(=O)Nc2ccc(COc3ccc(F)c(Cl)c3)cn2)nc1 [Compound 428] | > 45000 | > 45000 | – | –
COc1cc(Cl)cc(Cc2ccc(NC(=O)c3ccc(=O)n(C)c3)nc2)c1 [Compound 50, N-(5-(3-chloro-5-methoxybenzyl)pyridin-2-yl)-1-methyl-6-oxo-1,6-dihydropyridine-3-carboxamide] | – | – | 20 | 1530
Cn1cc(C(=O)Nc2ccc(Cc3ccc(Cl)cc3)cn2)ccc1=O [Compound 64, N-(5-(4-chlorobenzyl)pyridin-2-yl)-1-methyl-6-oxo-1,6-dihydropyridine-3-carboxamide] | – | – | 60 | 560
Cn1ccc(C(=O)Nc2ccc(Cc3cc(F)cc(F)c3)cn2)nc1=O [Compound 590] | 470 | 30000 | – | –
COCc1ncc(C(=O)Nc2ccc(Cc3cccc(Cl)c3)cn2)c(OC)n1 [Compound 110, N-(5-(3-chlorobenzyl)pyridin-2-yl)-4-methoxy-2-(methoxymethyl)pyrimidine-5-carboxamide] | 220 | 3940 | – | –
O=C(Nc1ccc(CO)nc1)c1ccc(Cc2cccc(F)c2)cn1 [Compound 125, 5-(3-Fluorobenzyl)-N-(6-(hydroxymethyl)pyridin-3-yl)picolinamide] | 10 | 10 | – | –
O=C(Nc1ccc(Cc2cccc(F)c2)cn1)c1ccc(F)c(Cl)n1 [Compound 417] | > 45000 | > 45000 | – | –
Cn1cc(-c2ccc(C(=O)NCc3cccc(F)c3)nc2)ccc1=O [Compound 467] | > 45000 | > 45000 | – | –
